Tests used:
Assay type in all cases: cell-based
[1] = tested on: ATCC19606 strain (Acinetobacter baumannii); experiment: Checkerboard antibacterial synergistic activity test with polymyxin E (FIC); parameters: key: FIC≤0.5 synergy; 0.5–1 additive; 1–2 indifferent; ≥2 antagonism; settings: combined with polymyxin E
Method in brief: (§1)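 First, two-fold series of polymyxin E (16–0.015 μg/ml) and compound (256–4 μg/ml) were made in MH broth. Next, combinations went into a 96-well grid, bacterial liquid was added, and plates sat at 37° C. for 16 h. Finally, FIC was computed and classed (≤0.5 synergistic).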

[2] = tested on: ATCC13883 strain (Klebsiella pneumoniae); experiment: as above; parameters: key: FIC≤0.5 synergy; 0.5–1 additive; 1–2 indifferent; ≥2 antagonism; settings: combined with polymyxin E
Method in brief: as §1

[3] = tested on: ATCC25922 strain (Escherichia coli); experiment: as above; parameters: key: FIC≤0.5 synergy; 0.5–1 additive; 1–2 indifferent; ≥2 antagonism; settings: combined with polymyxin E
Method in brief: as §1

[4] = tested on: ATCC9027 strain (Pseudomonas aeruginosa); experiment: as above; parameters: key: FIC≤0.5 synergy; 0.5–1 additive; 1–2 indifferent; ≥2 antagonism; settings: combined with polymyxin E
Method in brief: as §1

[5] = tested on: ATCC19606 strain (Acinetobacter baumannii); experiment: Broth microdilution, antibacterial activity of the compound used alone
From the text: (§2) The broth microdilution method was used to test the antibacterial effects of the compounds of the present invention against various Gram-negative bacterial strains when used alone.

[6] = tested on: ATCC13883 strain (Klebsiella pneumoniae); experiment: as above
From the text: as §2

[7] = tested on: ATCC25922 strain (Escherichia coli); experiment: as above
From the text: as §2

[8] = tested on: ATCC9027 strain (Pseudomonas aeruginosa); experiment: as above
From the text: as §2

Structure (SMILES) | Synergistic activity (FIC value) ATCC19606 [1] | Synergistic activity (FIC value) ATCC13883 [2] | Synergistic activity (FIC value) ATCC25922 [3] | Synergistic activity (FIC value) ATCC9027 [4] | Antibacterial activity of the compound of Formula I, ATCC19606 [5] | Antibacterial activity of the compound of Formula I, ATCC13883 [6] | Antibacterial activity of the compound of Formula I, ATCC25922 [7] | Antibacterial activity of the compound of Formula I, ATCC9027 [8]
O=[N+]([O-])c1cc(-c2nc(N=C3NCCCN3)sc2Br)ccc1Br [Compound I-176] | 0.13 | 0.31 | 0.38 | 0.53 | 256 µg/mL | 256 µg/mL | 256 µg/mL | 256 µg/mL
Fc1sc(N=C2NCCCN2)nc1-c1cc(Br)cc(Br)c1 [Compound I-177] | 0.5 | 1.25 | 0.63 | 1.25 | 256 µg/mL | 256 µg/mL | 256 µg/mL | 256 µg/mL
Oc1c(Br)cc(-c2coc(N=C3NCCCN3)n2)cc1Br [Compound I-178] | 0.51 | 1.25 | 1.25 | 1.25 | 256 µg/mL | 256 µg/mL | 256 µg/mL | 256 µg/mL
Ic1ccccc1-c1c[nH]c(N=C2NCCCN2)n1 [Compound I-179] | 1.25 | 1.25 | 1.25 | 0.51 | 256 µg/mL | 128 µg/mL | 128 µg/mL | 64 µg/mL
Ic1cccc(-c2csc(N=C3NCCCN3)n2)c1 [Compound I-180] | 0.26 | 1.25 | 1.25 | 1.25 | 256 µg/mL | 256 µg/mL | 256 µg/mL | 256 µg/mL
Ic1ccc(-c2csc(N=C3NCCCN3)n2)cc1 [Compound I-181] | 0.13 | 0.19 | 0.52 | 1.25 | 256 µg/mL | 256 µg/mL | 256 µg/mL | 256 µg/mL
Cc1sc(N=C2NCCCN2)nc1-c1cc(I)cc(I)c1 [Compound I-182] | 0.25 | 0.31 | 0.56 | 0.5 | 256 µg/mL | 256 µg/mL | 256 µg/mL | 256 µg/mL
Oc1c(I)cc(-c2nc(N=C3NCCCN3)sc2Cl)cc1I [Compound I-183] | 0.25 | 1.25 | 1.25 | 0.52 | 256 µg/mL | 256 µg/mL | 256 µg/mL | 256 µg/mL

Reference: US20260250257A1, “ANTIBACTERIAL AND SYNERGISTIC ACTIVE COMPOUND AND USE THEREOF” (EAST CHINA UNIVERSITY OF SCIENCE AND TECHNOLOGY, priority 2023, published 2026)
